# Source: patent publication US12421242B2, “Substituted tetrahydropyrrolo-pyridinone compounds and their use in treating medical conditions” (Karuna Therapeutics, Inc., priority 2022, dated 2025)
# Legend:
# rM4 receptors = molecular target: T1, rM4 receptors (Rattus norvegicus, UniProt P08485); assay: Rat M4 PAM pERK assay; type: cell-based; conditions: PAM mode
# T1 construct: expressed in transfected cells; host or cells: CHO cells
# T1 sequence (P08485 1-478): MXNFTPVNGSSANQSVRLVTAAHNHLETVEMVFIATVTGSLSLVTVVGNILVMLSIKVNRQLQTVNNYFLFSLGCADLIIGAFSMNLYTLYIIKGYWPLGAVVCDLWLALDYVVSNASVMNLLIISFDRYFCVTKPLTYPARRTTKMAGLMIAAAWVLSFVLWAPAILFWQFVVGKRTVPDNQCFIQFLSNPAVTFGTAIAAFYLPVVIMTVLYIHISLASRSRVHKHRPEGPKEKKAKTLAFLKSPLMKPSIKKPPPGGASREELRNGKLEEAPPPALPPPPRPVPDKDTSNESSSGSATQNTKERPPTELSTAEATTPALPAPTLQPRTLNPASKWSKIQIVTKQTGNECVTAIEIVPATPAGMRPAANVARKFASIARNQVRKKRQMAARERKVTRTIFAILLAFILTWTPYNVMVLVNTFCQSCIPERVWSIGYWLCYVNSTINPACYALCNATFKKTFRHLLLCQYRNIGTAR
# How it was run: (§1)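 CHO cells expressing hM4 or rM4 were serum-starved 4 h, then given compound (ten-point curve, 10 μM top, duplicate) with an EC20 of acetylcholine (10 nM final) for 5 min at 37° C. Phospho-ERK in lysates was detected by TR-FRET.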
# hM4 receptors = molecular target: T2, hM4 receptors (Homo sapiens, UniProt P08173); assay: Human M4 PAM pERK assay; type: cell-based; conditions: PAM mode
# T2 construct: expressed in transfected cells; host or cells: CHO cells
# T2 sequence (P08173 1-479): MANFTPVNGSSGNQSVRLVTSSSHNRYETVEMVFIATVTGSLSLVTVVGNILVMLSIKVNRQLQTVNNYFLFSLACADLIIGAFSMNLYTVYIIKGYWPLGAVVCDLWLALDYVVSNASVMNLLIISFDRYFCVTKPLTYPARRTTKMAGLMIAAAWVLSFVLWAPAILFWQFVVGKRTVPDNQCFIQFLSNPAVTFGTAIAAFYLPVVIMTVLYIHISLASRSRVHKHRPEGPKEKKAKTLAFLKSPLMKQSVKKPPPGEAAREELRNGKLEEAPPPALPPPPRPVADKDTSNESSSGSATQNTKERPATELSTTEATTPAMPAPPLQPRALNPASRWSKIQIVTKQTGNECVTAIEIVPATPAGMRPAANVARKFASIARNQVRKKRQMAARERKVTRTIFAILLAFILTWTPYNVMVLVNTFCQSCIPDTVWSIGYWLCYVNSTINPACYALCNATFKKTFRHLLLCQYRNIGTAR
# How it was run: as §1
# human M4 receptor = molecular target: T3, human M4 receptor (Homo sapiens, UniProt P08173); assay: M4 GTPγS PAM assay; type: biochemical; conditions: CHO-K1 membranes expressing human M4, with EC20 acetylcholine (40 nM)
# T3 construct: expressed in transfected cells
# T3 sequence (P08173 1-479): T2 sequence (P08173 1-479)
# Experimental: The M4 GTPγS PAM method was used. Membranes were prepared for GTPgS binding assays from CHO-K1 cells stably expressing human M4 receptor. Briefly, cells were grown in 5-layer cell culture flasks. Cells were washed with 50 mL of PBS and then dissociated with 0.05% trypsin. Dissociated cells were then collected by centrifugation at 650×g for 8 minutes at 4° C. Pellets were washed again in PBS by centrifugation and resuspended in 30 mL of 20 mM HEPES, 10 mM EDTA, pH 7.4. After sitting on ice for 30 min, membranes were collected by centrifugation at 50000×g for 15′ at 4° C., resuspended in 30 mL of 20 mM HEPES, 0.1 mM EDTA, pH 7.4 and collected again by centrifugation. Pellets were then washed twice by centrifugation in 30 mL of 20 mM HEPES, pH 7.4, and stored at −80° C. until the day of the assay. On the day of the assay, pellets were thawed on ice and resuspended in 1 mL of 20 mM HEPES, pH 7.4, 10 mM MgCl2, 100 mM NaCl using dounce homogenization. Membrane protein concentration is determined by BCA protein assay (Promega, Madison, WI) according to Promega guidelines.
# On the day of the assay, serial dilutions of test PAM compounds were brought up in assay buffer (20 mM HEPES, 10 mM MgCl2, 100 mM NaCl) at 4× final assay concentration. […] of membrane homogenates (containing […] of membrane protein) were prepared in assay buffer supplemented with GDP at 4× final assay concentration (final assay concentration of GDP is 5 uM for M2 and 0.1 uM for M4) and dispensed into 96 well polypropylene, U-bottom Greiner plates. […] of vehicle or test PAM compound at 4× of final assay concentration diluted in the assay buffer were added to membrane and plates are incubated for 10-15 minutes at room temperature with gentle shaking. Then, […] of EC20 acetylcholine in assay buffer at 4× final assay concentration was added to assay plates (EC20 final assay concentrations was 40 nM for human M4).
# Plates were then incubated, with shaking, for an additional 10-15 minutes. 25 mL of 0.4 nM ^35S-GTP (Perkin Elmer, Waltham, MA) in assay buffer was added to assay mixtures. The binding reaction is left on the shaker for 1 hour at room temperature. Membranes in assay reactions were then transferred to GF/C filter plates (Unifilter, Perkin Elmer) and washed three times using a FilterMate Harvester (Perkin Elmer) with cold assay buffer containing no GDP. Filter plates were then dried at 40° C. overnight followed by the addition of […] of Beta Plate Scintillation liquid. Plates are top and bottom sealed before being read on TopCount scintillation counter (Perkin Elmer, Waltham, MA).
EC50 (rM4 receptors) [µM],EC50 (hM4 receptors) [µM],EC50 (human M4 receptor) [µM],SMILES
> 2,> 2,0.5 to 2,COC(C)(C)Cn1cc(C(=O)N2Cc3c(C)c(Cl)c(=O)n(C)c3C2)cn1 [Compound I-62]
> 2,> 2,> 2,COCCn1cc(C(=O)N2Cc3c(C)c(Cl)c(=O)n(C)c3C2)cn1 [Compound I-63]
> 2,< 0.1,0.5 to 2,Cc1c2c(n(C)c(=O)c1Cl)CN(C(=O)c1cnc(CC3CC3(F)F)s1)C2 (stereo not drawn) [Compound I-66]
0.5 to 2,< 0.1,0.1 to 0.5,"Cc1c2c(n(C)c(=O)c1Cl)CN(C(=O)c1cnc(C(F)(F)C3CC3)s1)C2 [Compound I-67, 3-Chloro-6-(2-(cyclopropyldifluoromethyl)thiazole-5-carbonyl)-1,4-dimethyl-1,5,6,7-tetrahydro-2H-pyrrolo[3,4-b]pyridin-2-one]"
> 2,0.5 to 2,> 2,Cc1c2c(n(CC(F)(F)F)c(=O)c1Cl)CN(C(=O)c1cnc(CC3CC3)s1)C2 [Compound I-71]
0.1 to 0.5,0.1 to 0.5,0.1 to 0.5,Cc1c2c(n(CC(F)(F)F)c(=O)c1Cl)CN(C(=O)c1ccc3nc(C4CC4)sc3c1)C2 [Compound I-72]
0.5 to 2,0.1 to 0.5,0.1 to 0.5,"COc1c2c(n(C)c(=O)c1Cl)CN(C(=O)c1cnn(C(F)(F)F)c1)C2C (stereo not drawn) [Compound I-73, 3-Chloro-4-methoxy-1,5-dimethyl-6-(1-(trifluoromethyl)-1H-pyrazole-4-carbonyl)-1,5,6,7-tetrahydro-2H-pyrrolo[3,4-b]pyridin-2-one]"
> 2,0.5 to 2,0.5 to 2,"COc1cc(=O)n(C)c2c1C(C)N(C(=O)c1cnn(C(F)(F)F)c1)C2 (stereo not drawn) [Compound I-79, 4-Methoxy-1,5-dimethyl-6-(1-(trifluoromethyl)-1H-pyrazole-4-carbonyl)-1,5,6,7-tetrahydro-2H-pyrrolo[3,4-b]pyridin-2-one]"
> 2,0.1 to 0.5,0.5 to 2,"Cc1c(OC(F)F)c2c(n(C)c1=O)CN(C(=O)c1cnn(C(F)(F)F)c1)C2 [Compound I-89, 4-(Difluoromethoxy)-1,3-dimethyl-6-(1-(trifluoromethyl)-1H-pyrazole-4-carbonyl)-1,5,6,7-tetrahydro-2H-pyrrolo[3,4-b]pyridin-2-one]"
> 2,0.1 to 0.5,0.5 to 2,"CSc1c2c(n(C)c(=O)c1C)CN(C(=O)c1cnn(C(F)(F)F)c1)C2 [Compound I-90, 1,3-Dimethyl-4-(methylthio)-6-(1-(trifluoromethyl)-1H-pyrazole-4-carbonyl)-1,5,6,7-tetrahydro-2H-pyrrolo[3,4-b]pyridin-2-one]"
> 2,> 2,> 2,Cc1cc(=O)n(C)c2c1[C@H](C)N(C(=O)c1ccc3nc(C4CC4)sc3c1)C2 [Compound I-102]
0.5 to 2,0.1 to 0.5,> 2,Cc1cc(=O)n(C)c2c1[C@@H](C)N(C(=O)c1ccc3nc(C4CC4)sc3c1)C2 [Compound I-103]
> 2,0.5 to 2,> 2,Cc1c2c(n(C)c(=O)c1Cl)C(C)N(C(=O)c1cnn(C(F)(F)F)c1)C2 (stereo not drawn) [Compound I-109]
> 2,< 0.1,0.1 to 0.5,Cc1c2c(n(C)c(=O)c1C)CN(C(=O)c1cnn(C(F)(F)F)c1)C2 [Compound I-112]
> 2,< 0.1,0.5 to 2,"Cc1c2c(n(C)c(=O)c1F)CN(C(=O)c1cnn(C(F)(F)F)c1)C2 [Compound I-113, 3-Fluoro-1,4-dimethyl-6-(1-(trifluoromethyl)-1H-pyrazole-4-carbonyl)-1,5,6,7-tetrahydro-2H-pyrrolo[3,4-b]pyridin-2-one]"
